Reference: PubChem BioAssay (NCI)
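Assay format: 96-well plates, 48-hour exposure. TGI: total growth inhibition.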

What was measured:
Test in all cases: DTP human tumour cell line panel, 48 h
HS 578T breast = test system: HS 578T breast
MCF7 breast = test system: MCF7 breast
HCC-2998 colon = test system: HCC-2998 colon
NCI-H460 lung = test system: NCI-H460 lung
HCT-116 colon = test system: HCT-116 colon
ACHN renal = test system: ACHN renal
SR leukemia = test system: SR leukemia
UACC-257 melanoma = test system: UACC-257 melanoma
MDA-MB-231 breast = test system: MDA-MB-231 breast
OVCAR-8 ovarian = test system: OVCAR-8 ovarian
SK-MEL-28 melanoma = test system: SK-MEL-28 melanoma
SK-OV-3 ovarian = test system: SK-OV-3 ovarian
KM12 colon = test system: KM12 colon
RXF 393 renal = test system: RXF 393 renal
K-562 leukemia = test system: K-562 leukemia
CAKI-1 renal = test system: CAKI-1 renal
MOLT-4 leukemia = test system: MOLT-4 leukemia
A498 renal = test system: A498 renal
EKVX NSCLC = test system: EKVX NSCLC
HOP-92 NSCLC = test system: HOP-92 NSCLC
SK-MEL-5 melanoma = test system: SK-MEL-5 melanoma
CCRF-CEM leukemia = test system: CCRF-CEM leukemia
UO-31 renal = test system: UO-31 renal
COLO 205 colon = test system: COLO 205 colon
SNB-19 CNS = test system: SNB-19 CNS
OVCAR-5 ovarian = test system: OVCAR-5 ovarian
A549 NSCLC = test system: A549 NSCLC
HL-60(TB) leukemia = test system: HL-60(TB) leukemia
TK-10 renal = test system: TK-10 renal
PC-3 prostate = test system: PC-3 prostate
HT29 colon = test system: HT29 colon
M14 melanoma = test system: M14 melanoma
SW-620 colon = test system: SW-620 colon
SN12C renal = test system: SN12C renal
LOX IMVI melanoma = test system: LOX IMVI melanoma
MALME-3M melanoma = test system: MALME-3M melanoma
NCI-H23 lung = test system: NCI-H23 lung
SK-MEL-2 melanoma = test system: SK-MEL-2 melanoma
IGROV1 ovarian = test system: IGROV1 ovarian
OVCAR-3 ovarian = test system: OVCAR-3 ovarian
MDA-N = test system: MDA-N
NCI/ADR-RES ovarian = test system: NCI/ADR-RES ovarian
HOP-62 NSCLC = test system: HOP-62 NSCLC
SF-295 CNS = test system: SF-295 CNS
HCT-15 colon = test system: HCT-15 colon
U251 CNS = test system: U251 CNS
UACC-62 melanoma = test system: UACC-62 melanoma
OVCAR-4 ovarian = test system: OVCAR-4 ovarian
NCI-H226 lung = test system: NCI-H226 lung
SF-539 CNS = test system: SF-539 CNS
786-0 renal = test system: 786-0 renal
BT-549 breast = test system: BT-549 breast
SNB-75 CNS = test system: SNB-75 CNS
RPMI-8226 leukemia = test system: RPMI-8226 leukemia
NCI-H522 lung = test system: NCI-H522 lung
T-47D breast = test system: T-47D breast
SF-268 CNS = test system: SF-268 CNS
DU-145 prostate = test system: DU-145 prostate
MDA-MB-435 = test system: MDA-MB-435

Compound `C[C@@H]1CC[C@@H](C)[C@](C)(CCc2ccoc2)C/C=C\C=C/1C(=O)O` has a TGI (HS 578T breast) greater than 50 µM, a TGI (MCF7 breast) greater than 50 µM and a TGI (HCC-2998 colon) greater than 50 µM. For the same compound, the TGI (NCI-H460 lung) was greater than 50 µM, the TGI (HCT-116 colon) was greater than 50 µM and the TGI (ACHN renal) was greater than 50 µM. For the same compound, the TGI (SR leukemia) was greater than 50 µM, the TGI (UACC-257 melanoma) was greater than 50 µM and the TGI (MDA-MB-231 breast) was greater than 50 µM. It also gave a TGI (OVCAR-8 ovarian) greater than 50 µM, a TGI (SK-MEL-28 melanoma) greater than 50 µM and a TGI (SK-OV-3 ovarian) greater than 50 µM. The TGI (KM12 colon) was greater than 50 µM, the TGI (RXF 393 renal) was greater than 50 µM and the TGI (K-562 leukemia) was greater than 50 µM. It also gave a TGI (CAKI-1 renal) greater than 50 µM, a TGI (MOLT-4 leukemia) greater than 50 µM and a TGI (A498 renal) greater than 50 µM. The TGI (EKVX NSCLC) was greater than 50 µM, the TGI (HOP-92 NSCLC) was greater than 50 µM and the TGI (SK-MEL-5 melanoma) was greater than 50 µM. The TGI (CCRF-CEM leukemia) was greater than 50 µM, the TGI (UO-31 renal) was greater than 50 µM and the TGI (COLO 205 colon) was greater than 50 µM. It also gave a TGI (SNB-19 CNS) greater than 50 µM, a TGI (OVCAR-5 ovarian) greater than 50 µM and a TGI (A549 NSCLC) greater than 50 µM. The TGI (HL-60(TB) leukemia) was greater than 50 µM, the TGI (TK-10 renal) was greater than 50 µM and the TGI (PC-3 prostate) was greater than 50 µM. It also gave a TGI (HT29 colon) greater than 50 µM, a TGI (M14 melanoma) greater than 50 µM and a TGI (SW-620 colon) greater than 50 µM. The TGI (SN12C renal) was greater than 50 µM, the TGI (LOX IMVI melanoma) was greater than 50 µM and the TGI (MALME-3M melanoma) was greater than 50 µM. For the same compound, the TGI (NCI-H23 lung) was greater than 50 µM, the TGI (SK-MEL-2 melanoma) was greater than 50 µM and the TGI (IGROV1 ovarian) was greater than 50 µM. The TGI (OVCAR-3 ovarian) was greater than 50 µM, the TGI (MDA-N) was greater than 50 µM and the TGI (NCI/ADR-RES ovarian) was greater than 50 µM. It also gave a TGI (HOP-62 NSCLC) greater than 50 µM, a TGI (SF-295 CNS) greater than 50 µM and a TGI (HCT-15 colon) greater than 50 µM. It also gave a TGI (U251 CNS) greater than 50 µM, a TGI (UACC-62 melanoma) greater than 50 µM and a TGI (OVCAR-4 ovarian) greater than 50 µM. It also gave a TGI (NCI-H226 lung) greater than 50 µM, a TGI (SF-539 CNS) greater than 50 µM and a TGI (786-0 renal) greater than 50 µM. For the same compound, the TGI (BT-549 breast) was greater than 50 µM and the TGI (SNB-75 CNS) was greater than 50 µM.
`COc1cc2c(cc1-c1coc3cc(OCC=C(C)C)ccc3c1=O)OCO2` was tested, and the TGI (HS 578T breast) was greater than 100 µM, the TGI (MCF7 breast) was greater than 100 µM and the TGI (HCC-2998 colon) was 44.8 µM. It also gave a TGI (NCI-H460 lung) of 35.1 µM, a TGI (HCT-116 colon) of 51.4 µM and a TGI (ACHN renal) greater than 100 µM. For the same compound, the TGI (SR leukemia) was 33.3 µM, the TGI (UACC-257 melanoma) was greater than 100 µM and the TGI (MDA-MB-231 breast) was 65.6 µM. The TGI (SK-MEL-28 melanoma) was greater than 100 µM, the TGI (RPMI-8226 leukemia) was 66 µM and the TGI (SK-OV-3 ovarian) was greater than 100 µM. The TGI (KM12 colon) was 52.4 µM, the TGI (K-562 leukemia) was greater than 100 µM and the TGI (CAKI-1 renal) was 58.5 µM. It also gave a TGI (MOLT-4 leukemia) of 45.2 µM, a TGI (A498 renal) greater than 100 µM and a TGI (EKVX NSCLC) greater than 100 µM. For the same compound, the TGI (HOP-92 NSCLC) was greater than 100 µM, the TGI (SK-MEL-5 melanoma) was 36.9 µM and the TGI (UO-31 renal) was greater than 100 µM. It also gave a TGI (COLO 205 colon) greater than 100 µM, a TGI (SNB-19 CNS) greater than 100 µM and a TGI (OVCAR-5 ovarian) greater than 100 µM. It also gave a TGI (A549 NSCLC) greater than 100 µM, a TGI (HL-60(TB) leukemia) of 35.7 µM and a TGI (TK-10 renal) greater than 100 µM. The TGI (PC-3 prostate) was greater than 100 µM, the TGI (M14 melanoma) was greater than 100 µM and the TGI (SW-620 colon) was greater than 100 µM. The TGI (NCI-H522 lung) was 48.9 µM, the TGI (SN12C renal) was greater than 100 µM and the TGI (LOX IMVI melanoma) was 93.9 µM. It also gave a TGI (T-47D breast) greater than 100 µM, a TGI (SF-268 CNS) greater than 100 µM and a TGI (NCI-H23 lung) greater than 100 µM. The TGI (SK-MEL-2 melanoma) was greater than 100 µM, the TGI (IGROV1 ovarian) was greater than 100 µM and the TGI (OVCAR-3 ovarian) was greater than 100 µM. For the same compound, the TGI (MDA-N) was 28.5 µM, the TGI (HOP-62 NSCLC) was 89.1 µM and the TGI (SF-295 CNS) was greater than 100 µM. For the same compound, the TGI (HCT-15 colon) was 32.8 µM, the TGI (U251 CNS) was greater than 100 µM and the TGI (UACC-62 melanoma) was greater than 100 µM. The TGI (OVCAR-4 ovarian) was greater than 100 µM, the TGI (SF-539 CNS) was greater than 100 µM and the TGI (786-0 renal) was 61.8 µM. It also gave a TGI (DU-145 prostate) greater than 100 µM, a TGI (BT-549 breast) of 48.4 µM and a TGI (SNB-75 CNS) greater than 100 µM. The TGI (MDA-MB-435) was greater than 100 µM.
